Assay results as given in patent US10597388B2, “Pyridazinone herbicides” (FMC CORPORATION, priority 2014, dated 2020).
Where two headings read alike, the source gives them in different places.

Columns and labels:
Format in all cases: in vivo
[1] = system: barnyardgrass (Echinochloa crus-galli); test: Test A greenhouse herbicide test, pre- and postemergence; settings: for pest or weed control at 1000 g/ha: Echinochloa crus-galli, 240 h
Method in brief: (§1)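 Visual injury ratings, 0 (no effect) to 100 (complete control), versus untreated plants after roughly 10 d in a greenhouse. Compounds, formulated in a surfactant-containing non-phytotoxic solvent, were sprayed on loam–sand soil after sowing (pre) or on one- to two-leaf plants 2–10 cm tall (post).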

corn (Zea mays) = test: as above
Method in brief: as §1

[2] = system: crabgrass, large (large crabgrass, Digitaria sanguinalis); test: as above; settings: 1000 g ai/ha, 0 to 100 scale
Method in brief: as §1

[3] = system: foxtail, giant (giant foxtail, Setaria faberii); test: as above; settings: for pest or weed control at 1000 g/ha: Setaria faberi, 240 h
Method in brief: as §1

[4] = system: momingglory (Ipomoea spp.); test: as above; settings: 1000 g ai/ha, 0 to 100 scale; for pest or weed control at 1000 g/ha: Ipomoea, 240 h
Method in brief: as §1

[5] = system: pigweed (Amaranthus retroflexus); test: as above
Method in brief: as §1

[6] = system: velvetleaf (Abutilon theophrasti); test: as above; settings: Preemergence, 1000 g ai/ha, 0 to 100 scale, 0 no effect, 100 complete control
Method in brief: as §1

[7] = system: wheat (Triticum aestivum); test: as above; settings: for plant injury at 1000 g/ha: Triticum aestivum, 240 h
Method in brief: as §1

[8] = system: barnyardgrass (Echinochloa crus-galli); test: Test B flooded paddy test; settings: 250 g ai/ha, Flood; visual rating on scale of 0 to 100 where 0 is no effect and 100 is complete control; 13 to 15 d after treatment
Method in brief: (§2)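 Ratings use a 0-100 visual scale, where 100 is complete control, and compare treated plants with controls after 13 to 15 d of greenhouse growth. Compound went straight into paddy water kept 3 cm over the soil surface, applied to seedlings at the 2-leaf stage.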

[9] = system: ducksalad (Heteranthera limosa); test: Test B flooded paddy test; settings: 250 g ai/ha, Flood; visual rating on scale of 0 to 100 where 0 is no effect and 100 is complete control; 13 to 15 d after treatment
Method in brief: as §2

rice (Oryza sativa) = test: Test B flooded paddy test; settings: 250 g ai/ha, Flood; visual rating on scale of 0 to 100 where 0 is no effect and 100 is complete control; 13 to 15 d after treatment
Method in brief: as §2

[10] = system: sedge, umbrella (small-flower umbrella sedge, Cyperus difformis); test: Test B flooded paddy test; settings: 250 g ai/ha, Flood; visual rating on scale of 0 to 100 where 0 is no effect and 100 is complete control; 13 to 15 d after treatment
Method in brief: as §2

kochia (Kochia scoparia) = test: Test A greenhouse herbicide test, pre- and postemergence
Method in brief: as §1

[11] = system: ragweed (common ragweed, Ambrosia elatior); test: as above
Method in brief: as §1

[12] = system: ryegrass, Italian (Italian ryegrass, Lolium multiflorum); test: as above
Method in brief: as §1

[13] = system: blackgrass (Alopecurus myosuroides); test: Test A greenhouse herbicide test, postemergence
Method in brief: (§3)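 Scores are visual injury ratings from 0 (no effect) to 100 (complete control) versus untreated plants, taken roughly 10 d after treatment in the greenhouse. Treatment was postemergence, on one- to two-leaf plants 2–10 cm high growing in a loam soil/sand mix.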

[14] = system: galium (catchweed bedstraw, Galium aparine); test: Test A greenhouse herbicide test, postemergence
Method in brief: as §3

[15] = Postemergence, 1000 g ai/ha, 0 to 100 scale, 0 is no effect, 100 is complete control
[16] = Preemergence, 1000 g ai/ha, 0 to 100 scale, 0 no effect, 100 complete control
[17] = Postemergence, 0 is no effect, 100 is complete control
[18] = Preemergence, 0 no effect, 100 complete control
[19] = Postemergence, 125 g ai/ha, 0 to 100 scale where 0 is no effect and 100 is complete control
[20] = Postemergence, 500 g ai/ha, 0 to 100 scale, 0 is no effect, 100 is complete control
[21] = Preemergence, 125 g ai/ha, 0 to 100 scale where 0 is no effect and 100 is complete control
[22] = Preemergence, 500 g ai/ha, 0 to 100 scale where 0 is no effect and 100 is complete control
[23] = 125 g ai/ha, 0 to 100 scale where 0 is no effect and 100 is complete control
[24] = 500 g ai/ha, 0 to 100 scale, 0 is no effect, 100 is complete control

Cc1nn(C)c(=O)c(-c2c(C)oc3ccc(Cl)cc23)c1O [Compound 6, 4-(5-chloro-2-methyl-3-benzofuranyl)-5-hydroxy-2,6-dimethyl-3 (2H)-pyridazinone]
pest or weed control at 1000 g/ha ([1]; post-emergence, Postemergence, 1000 g ai/ha, 0 to 100 scale, 0 is no effect, 100 is complete control, read-out: Barnyardgrass plant response rating): 70% | pest or weed control at 1000 g/ha ([1]; pre-emergence, Preemergence, 1000 g ai/ha, 0 to 100 scale, 0 no effect, 100 complete control, read-out: Plant response rating, Barnyardgrass): 100% | plant injury at 1000 g/ha (corn (Zea mays); Zea mays, post-emergence, 240 h, Postemergence, 1000 g ai/ha, 0 to 100 scale, 0 is no effect, 100 is complete control, read-out: Corn plant response rating): 0% | Corn plant response rating (crop injury, 0 = no effect, 100 = complete kill) at 1000 g/ha (corn (Zea mays); Zea mays, pre-emergence, 240 h, Preemergence, 1000 g ai/ha, 0 to 100 scale, 0 no effect, 100 complete control): 30% | pest or weed control at 1000 g/ha ([2]; Digitaria sanguinalis, post-emergence, 240 h, Postemergence, 0 is no effect, 100 is complete control, read-out: Crabgrass, Large plant response rating): 50% | pest or weed control at 1000 g/ha ([3]; post-emergence, Postemergence, 1000 g ai/ha, 0 to 100 scale, 0 is no effect, 100 is complete control, read-out: Foxtail, Giant plant response rating): 70% | pest or weed control at 1000 g/ha ([3]; pre-emergence, Preemergence, 1000 g ai/ha, 0 to 100 scale, 0 no effect, 100 complete control, read-out: Plant response rating, Foxtail, Giant): 50% | pest or weed control at 1000 g/ha ([4]; post-emergence, Postemergence, 0 is no effect, 100 is complete control, read-out: Morningglory plant response rating): 40% | pest or weed control at 1000 g/ha ([4]; pre-emergence, Preemergence, 0 no effect, 100 complete control, read-out: Plant response rating, Morningglory): 10% | pest or weed control at 1000 g/ha ([5]; Amaranthus retroflexus, post-emergence, 240 h, Postemergence, 1000 g ai/ha, 0 to 100 scale, 0 is no effect, 100 is complete control, read-out: Pigweed plant response rating): 50% | pest or weed control at 1000 g/ha ([6]; Abutilon theophrasti, pre-emergence, 240 h, read-out: Plant response rating, Velvetleaf): 20% | plant injury at 1000 g/ha ([7]; post-emergence, Postemergence, 1000 g ai/ha, 0 to 100 scale, 0 is no effect, 100 is complete control, read-out: Wheat plant response rating): 20% | plant injury at 1000 g/ha ([7]; pre-emergence, Preemergence, 1000 g ai/ha, 0 to 100 scale, 0 no effect, 100 complete control, read-out: Plant response rating, Wheat): 0%

5-hydroxy-4-(5-methoxy-3-benzofuranyl)-2,6-dimethyl-3(2H)-pyridazinone [Compound 5]
Barnyardgrass plant response rating [1, 15]: 40 | Plant response rating, Barnyardgrass [1, 16]: 90 | Corn plant response rating (corn (Zea mays); [15]): 0 | Plant response rating, Corn (corn (Zea mays); [16]): 0 | Crabgrass, Large plant response rating [2, 17]: 80 | Plant response rating, Crabgrass, Large [2, 18]: 90 | Foxtail, Giant plant response rating [3, 15]: 80 | Plant response rating, Foxtail, Giant [3, 16]: 80 | Morningglory plant response rating [4, 17]: 70 | Plant response rating, Morningglory [4, 18]: 0 | Pigweed plant response rating [5, 15]: 10 | Plant response rating, Pigweed [5, 16]: 0 | Plant response rating, Velvetleaf [6]: 0 | Wheat plant response rating [7, 15]: 0 | Plant response rating, Wheat [7, 16]: 0 | Plant response rating, Barnyardgrass [8]: 0 | Plant response rating, Ducksalad [9]: 45 | Plant response rating, Rice (rice (Oryza sativa)): 0 | Plant response rating, Sedge, Umbrella [10]: 75

CCOc1ccc2oc(CC)c(-c3c(O)c(C)nn(C)c3=O)c2c1 [Compound 68]
Plant response rating, Barnyardgrass [1, 19]: 70 | Barnyardgrass plant response rating [1, 20]: 80 | Barnyardgrass plant response rating [1, 21]: 10 | Plant response rating, Barnyardgrass ([1]; Preemergence, 500 g ai/ha, 0 to 100 scale, 0 no effect, 100 complete control): 40 | Plant response rating, Corn (corn (Zea mays); [19]): 0 | Corn plant response rating (corn (Zea mays); [20]): 0 | Plant response rating, Foxtail, Giant [3, 19]: 10 | Foxtail, Giant plant response rating [3, 20]: 50 | Foxtail, Giant plant response rating [3, 21]: 10 | Plant response rating, Foxtail, Giant [3, 22]: 50 | Plant response rating, Kochia (kochia (Kochia scoparia); [19]): 0 | Kochia plant response rating (kochia (Kochia scoparia); [20]): 0 | Kochia plant response rating (kochia (Kochia scoparia); [21]): 0 | Plant response rating, Kochia (kochia (Kochia scoparia); [22]): 0 | Plant response rating, Pigweed [5, 19]: 0 | Pigweed plant response rating [5, 20]: 0 | Pigweed plant response rating [5, 21]: 0 | Plant response rating, Pigweed [5, 22]: 0 | Plant response rating, Ragweed [11, 19]: 0 | Ragweed plant response rating [11, 20]: 0 | Ragweed plant response rating [11, 21]: 0 | Plant response rating, Ragweed [11, 22]: 20 | Plant response rating, Ryegrass, Italian [12, 19]: 0 | Ryegrass, Italian plant response rating [12, 20]: 0 | Ryegrass, Italian plant response rating [12, 21]: 0 | Plant response rating, Ryegrass, Italian [12, 22]: 0 | Plant response rating, Wheat [7, 19]: 0 | Wheat plant response rating [7, 20]: 0 | Plant response rating, Blackgrass [13, 23]: 0 | Blackgrass plant response rating [13, 24]: 10 | Plant response rating, Galium [14, 23]: 0 | Galium plant response rating [14, 24]: 0 | Plant response rating, Barnyardgrass [8]: 0 | Plant response rating, Ducksalad [9]: 0 | Plant response rating, Rice (rice (Oryza sativa)): 0 | Plant response rating, Sedge, Umbrella [10]: 30
